# US20100168231A1, “TARGET ENZYME FOR THE TREATMENT OF ACNE” (GALDERMA RESEARCH & DEVELOPMENT, priority 2007, published 2010)
# Read-outs that look alike come from different tables or passages of the source.
# How the values were obtained:
# human DHRS9 = molecular target: T1, human DHRS9 (Homo sapiens, UniProt Q9BPW9); experiment: Cellular model of oxidation of 3α-diol by DHRS9: inhibition of 3α-diol conversion to DHT, followed via AR transactivation (luciferase reporter) in DHRS9-transfected PALM cells; assay type: cell-based; conditions: read-out: inhibition of 3α-diol conversion
# T1 construct: expressed in transfected cells; host or cells: PALM cells (PC-3 stably co-transfected with human androgen receptor and pMMTV-neo-Luc)
# T1 sequence (Q9BPW9 18-319): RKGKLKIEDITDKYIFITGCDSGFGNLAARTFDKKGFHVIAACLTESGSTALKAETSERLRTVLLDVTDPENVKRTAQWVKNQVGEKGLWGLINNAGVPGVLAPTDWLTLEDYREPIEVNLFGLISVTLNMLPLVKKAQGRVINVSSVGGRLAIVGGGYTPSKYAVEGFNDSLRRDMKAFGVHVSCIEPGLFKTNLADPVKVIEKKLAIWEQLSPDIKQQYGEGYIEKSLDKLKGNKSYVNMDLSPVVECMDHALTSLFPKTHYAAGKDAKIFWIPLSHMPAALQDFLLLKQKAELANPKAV
# Excerpt: (§1) The cDNA coding for human DHRS9 was sub-cloned into a pcDNA3.1/zeo expression vector. This was then transfected into a cell line denoted PALM, standing for PC-3 Androgen receptor Luciferase MMTV. This cell line originates from PC-3 cells which have been stably co-transfected by the expression vector coding for the human androgen receptor (pSG5-puro-h androgen receptor (AR)) and by the reporter gene vector coding for luciferase (pMMTV-neo-Luc), the promoter for which has AR response elements.
# (§2) The activity of conversion of 3α-diol to DHT by DHRS9 can thus be followed via AR transactivation.
# [1] = tested on: human androgen receptor (AR); experiment: Dose-response of the 3α-diol substrate for AR transactivation in PALM cells (PC-3 Androgen receptor Luciferase MMTV); assay type: cell-based
# Excerpt: as §1, §2
structure (smiles),measurement,setting,value
"CC(C)=CCCC(C)=CC=O (racemic) [citral, Citral]",inhibition at 100 µM,human DHRS9,86%
"C[C@]12CC[C@@H](O)C[C@@H]1CC[C@@H]1[C@@H]2CC[C@]2(C)[C@@H](O)CC[C@@H]12 [3α-diol, 3α-androstanediol]",AC50,[1]; cells transfected with DHRS9,19 nM
same,AC50,[1]; non-transfected cells,189 nM
"CC1(C)[C@@H](OC(=O)CCC(=O)O)CC[C@]2(C)[C@H]3C(=O)C=C4[C@@H]5C[C@@](C)(C(=O)O)CC[C@]5(C)CC[C@@]4(C)[C@]3(C)CC[C@@H]12 [carbenoxolone, Carbenoxolone]",inhibition at 100 µM,"human DHRS9; concentration of 100 μM, PALM cells transfected with DHRS9",35%
